# “Also recorded” adds a separate entry of the source.
# How the values were obtained:
# C57BI/6 mice = assay: Locomotor chambers and Morris water maze after LPS in mice; format: in vivo, mouse; details: for effect of NSAID on LPS-induced impairment of probe trial performance: oral NSAID course, training from Day 28
# Experimental: Behavioral testing. Locomotor activity was measured in 17×17 inch chambers lined with three 16-beam infrared arrays in photocell boxes (MED Associates, Inc., St. Albans, Vt.). The mice were placed into the chambers and their locomotor activity was recorded for 20 minutes 4 days after LPS was injected (on Day 4). A 50 msec scanning rate was used for measuring beams broken. Distance traveled was analyzed for estimates of locomotion based on the movement of a given distance and resting delay (movement in a given period) using Open Field Activity software (MED Associates, Inc., St. Albans, Vt.).
# Hippocampus-dependent learning and memory was assessed in the standard Morris water maze task. All hippocampus-dependent training and testing was conducted in a black circular tank (170 cm diameter×43 cm height) filled water made opaque using white non-toxic Tempra paint (Rich Art Color Co. Inc, Northvale, Calif.; training and testing). A platform (13 cm diameter×28.5 cm height) was hidden 1 cm below the water surface for platform shaping and training trials. Time and distance traveled in the pool was recorded using Videotrack Automated Behavioral Analysis System (Viewpoint Life Sciences Inc., Otterburn Park, Quebec).
# Platform shaping began three days before platform training (Days 25-27). In the absence of extra-maze cues, mice were released from random points in the pool (filled with clearwater) near the platform and gently guided to the platform. Shaping trials continued until the mouse remained on the platform for 15 s over 3 consecutive trials on each of the three sessions.
# […] In the presence of extra-maze cues, the mice were released from the middle of the east, south, or west quadrant, facing the pool wall, and were given 120 s to find the platform hidden beneath opaque water in the center of the north quadrant. […] Sessions of 6 training trials (inter-trial interval of approximately 30 min) were conducted daily until all the mice located the platform in an average of 15 s or less within a session. […] Pathlength and latency were analyzed as measures of learning, swim speed was analyzed as a measure of sensorimotor ability and % time spent in outer annulus was analyzed as a measure of anxiety.
# Probe Trial Testing was conducted at 1 week after mice reached criterion in the platform training phase of the experiment. The room setup was identical for platform training and probe trials, with the exception that the platform was removed from the pool during probe trials. The mice were given a single trial in which they were released from the center of the pool and then after 3 minutes were removed from the location that held the platform during training trials. Percent time and distance spent in each quadrant were analyzed as measures of memory, swim speed and total distance swum were analyzed as measures of sensorimotor ability and % time and distance spent in the outer annulus were analyzed as measures of anxiety. After the last probe trial, we ran four daily sessions of reversal trials (4 trials per session) in which mice were given 120 s to locate the platform hidden beneath opaque water in the south quadrant to better interpret whether probe trial performance was indicative of memory or perseveration. […] A visible platform session (2 trials) was administered after the final reversal trial to further test sensorimotor ability. Reversal and visible platform trial performance was scored identically to platform training performance.
# [1] = Sickness behavior and weight loss after LPS in mice; format: in vivo, mouse; details: for effect of NSAID on LPS-induced sickness behavior and weight loss: oral NSAID course
# Excerpt: LPS-induced transient illness is associated with mild but persistent memory impairment. Hippocampal neurogenesis, a phenomenon that persists throughout life in men and mice alike, has been linked to learning and memory by several groups. Manipulations that chronically deplete hippocampal neurogenesis produce concomitant impairments in cognition, particularly hippocampus-dependent memory. […] To determine whether LPS-induced illness affects learning and/or memory during either the acute recovery phase or in asymptomatic mice, a single 0 or 5 mg/kg injection of LPS was administered with daily subcutaneous saline injections over 4 days to maintain hydration and their behavior examined in locomotor chambers and/or the Morris water maze task either in the week following treatment or beginning 4 weeks after treatment when the decrease in net neurogenesis is most apparent.
# Subjects. All mice used as subjects in this study were treated in accordance with the policies set forth by the Stanford Animal Care and Use Committee and NIH regarding the ethical use of animals for experimentation. CB57BI/6 mice (7 wks old upon arrival from -Taconic) were housed in groups of 4-5 in autoclaved shoebox cages under standard conditions and were given free access to autoclaved Prolab Mouse 3000 chow (PMI Nutrition International, St. Louis, Mo.) and autoclaved tap water. […] Louis, Mo.) to induce transient illness (Day 0) and daily subcutaneous (s.c.) isotonic saline (0.5 ml) injections (Days 0-3) to prevent illness-induced dehydration. The cell synthesis marker bromodeoxyuridine (BrdU; Sigma Aldrich, St. Louis, Mo.) was injected i.p. (50 mg/kg at a concentration of 10 mg/ml in freshly prepared isotonic saline) once per day for 6 days to label dividing cells, beginning Day 0 (2 h after LPS). The mice were anesthetized with ketamine/xylazine and killed at Days 7 or 28 (to assess hippocampal neurogenesis during illness and just before behavioral testing, respectively) or Day 80 (to measure hippocampal neurogenesis following behavioural testing) by perfusion with 4% paraformaldehyde. Brains were post-fixed overnight in perfusate, microtome sectioned at 40 μm through the hippocampus and stored in tissue cryoprotectant solution at −20° C. until processed immunohistochemically.
# [2] = LPS 5 mg/kg, listed as Indomethacin
Compound,effect of NSAID on LPS-induced impairment of probe trial performance (C57BI/6 mice; LPS 5 mg/kg),effect of NSAID on LPS-induced impairment of probe trial performance (C57BI/6 mice; [2]),effect of NSAID on LPS-induced sickness behavior and weight loss ([1]; LPS 5 mg/kg),"effect of NSAID on LPS-induced sickness behavior and weight loss [1, 2]","total distance explored and duration spent exploring a novel chamber vs vehicle (C57BI/6 mice; LPS 5 mg/kg, Day 4)","learning and remembering hidden platform position vs control, acute phase recovery (C57BI/6 mice; LPS 5 mg/kg, training from Day 7)",probe trial time in platform quadrant vs control (C57BI/6 mice; training commenced 4 weeks after LPS),days to recovery of body weight ([1]; LPS 5 mg/kg) [days],days to recovery of body weight ([1]; LPS 7.5 mg/kg) [days],days to recovery of body weight ([1]; LPS 10 mg/kg) [days],"onset of sickness behavior (hunching, piloerection, sweaty fur) ([1]; after LPS injection) [h]",day by which weight loss is fully restored ([1]; lowest LPS dose tested) [days],loss of body weight ([1]; lowest LPS dose tested (titration 5-10 mg/kg)),loss of body mass ([1]; within 2 d following LPS injection)
COc1ccc2c(c1)c(CC(=O)O)c(C)n2C(=O)c1ccc(Cl)cc1 [indomethacin],partially attenuated,reversed the effects of LPS on probe trial performance,not significantly attenuated,not significantly affected,–,–,–,–,–,–,–,–,–,–
lipopolysaccharide [LPS],–,–,–,–,significantly smaller,equally efficient,significantly smaller amount of time; also recorded: significantly less time,4,5,6,1 to 2,≤ 6,roughly 20%,approximately 10%

# Reference: patent US7998460B2, “Prevention of deficits in neurogenesis with anti-inflammatory agents” (The Board of Trustees of the Leland Stanford Junior …, priority 2003, dated 2011)
